Results on 8 compounds are retold here after article PMC7901699, “Challenging inflammatory process at molecular, cellular and in vivo levels via some new pyrazolyl thiazolones” (Journal of Enzyme Inhibition and Medicinal Chemistry, 2021).

Entries after “also recorded” stand apart in the source; their conditions may differ.

Data set [1] has as its target T1, 15-LOX (Glycine max, UniProt P08170).
T1 construct: purchased Cayman chemicals 760700
T1 sequence (P08170 1-839): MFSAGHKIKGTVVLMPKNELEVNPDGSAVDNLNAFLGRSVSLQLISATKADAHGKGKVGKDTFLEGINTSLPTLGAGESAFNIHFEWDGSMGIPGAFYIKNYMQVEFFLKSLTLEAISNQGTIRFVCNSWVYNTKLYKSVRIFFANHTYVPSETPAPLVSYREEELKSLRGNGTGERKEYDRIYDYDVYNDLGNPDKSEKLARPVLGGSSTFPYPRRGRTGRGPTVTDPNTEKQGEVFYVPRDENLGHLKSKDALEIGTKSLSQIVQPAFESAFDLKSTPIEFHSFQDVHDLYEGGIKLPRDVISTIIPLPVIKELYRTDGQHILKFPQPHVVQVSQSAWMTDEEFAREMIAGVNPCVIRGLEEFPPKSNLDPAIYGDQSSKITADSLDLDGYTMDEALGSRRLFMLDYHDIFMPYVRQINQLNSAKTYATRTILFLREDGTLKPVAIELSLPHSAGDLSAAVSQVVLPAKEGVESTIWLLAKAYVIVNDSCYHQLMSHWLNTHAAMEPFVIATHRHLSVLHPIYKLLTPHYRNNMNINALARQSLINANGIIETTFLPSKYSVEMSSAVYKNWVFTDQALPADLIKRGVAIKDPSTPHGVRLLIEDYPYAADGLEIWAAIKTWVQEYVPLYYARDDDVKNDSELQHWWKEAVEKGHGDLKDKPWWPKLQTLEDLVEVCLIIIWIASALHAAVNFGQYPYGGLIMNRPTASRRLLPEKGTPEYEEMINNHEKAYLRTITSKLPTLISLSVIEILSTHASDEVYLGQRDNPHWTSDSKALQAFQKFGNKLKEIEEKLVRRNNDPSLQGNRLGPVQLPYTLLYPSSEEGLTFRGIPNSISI
Briefly: In vitro 15-LOX inhibition assay (lipoxygenase inhibitor screening kit, Cayman). Format: biochemical. The following applies: for IC50: mean of three determinations. The protocol: (§1) Both assays were carried out in compliance with the manufacturer’s instructions and in accordance to prior studies[29]^,[33].
(§2) IC50 values (μM) and selectivity indices (SI) were calculated.

Data set [2] addresses T2, ovine COX-1 (Ovis aries, UniProt P05979).
T2 construct: purchased Cayman Chemicals Inc. 560131
T2 sequence (P05979 25-600): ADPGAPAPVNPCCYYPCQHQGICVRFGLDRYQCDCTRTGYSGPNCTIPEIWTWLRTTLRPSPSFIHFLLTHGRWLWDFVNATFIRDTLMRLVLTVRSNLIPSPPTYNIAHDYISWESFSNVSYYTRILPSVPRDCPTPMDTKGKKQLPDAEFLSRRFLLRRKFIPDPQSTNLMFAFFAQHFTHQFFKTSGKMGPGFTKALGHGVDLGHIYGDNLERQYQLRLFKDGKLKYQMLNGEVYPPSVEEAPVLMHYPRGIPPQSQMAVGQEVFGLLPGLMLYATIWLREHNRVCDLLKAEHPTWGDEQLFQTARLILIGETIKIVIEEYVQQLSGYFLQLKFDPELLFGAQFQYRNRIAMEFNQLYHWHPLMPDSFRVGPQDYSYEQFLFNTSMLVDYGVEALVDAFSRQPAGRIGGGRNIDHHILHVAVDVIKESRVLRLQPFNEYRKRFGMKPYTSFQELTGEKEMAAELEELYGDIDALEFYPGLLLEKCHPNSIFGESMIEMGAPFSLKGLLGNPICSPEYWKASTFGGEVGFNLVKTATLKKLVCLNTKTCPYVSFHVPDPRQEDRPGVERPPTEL
Nature of the data set: In vitro COX-1 inhibition assay (colorimetric COX inhibitor screening kit, Cayman). The settings on record: mean of three determinations. The class given is biochemical. As to the method:
as §1, §2

The target of data set [3] is T3, human recombinant COX-2 (Homo sapiens, UniProt P35354).
T3 construct: purchased Cayman Chemicals Inc. 560131
T3 sequence (P35354 18-604): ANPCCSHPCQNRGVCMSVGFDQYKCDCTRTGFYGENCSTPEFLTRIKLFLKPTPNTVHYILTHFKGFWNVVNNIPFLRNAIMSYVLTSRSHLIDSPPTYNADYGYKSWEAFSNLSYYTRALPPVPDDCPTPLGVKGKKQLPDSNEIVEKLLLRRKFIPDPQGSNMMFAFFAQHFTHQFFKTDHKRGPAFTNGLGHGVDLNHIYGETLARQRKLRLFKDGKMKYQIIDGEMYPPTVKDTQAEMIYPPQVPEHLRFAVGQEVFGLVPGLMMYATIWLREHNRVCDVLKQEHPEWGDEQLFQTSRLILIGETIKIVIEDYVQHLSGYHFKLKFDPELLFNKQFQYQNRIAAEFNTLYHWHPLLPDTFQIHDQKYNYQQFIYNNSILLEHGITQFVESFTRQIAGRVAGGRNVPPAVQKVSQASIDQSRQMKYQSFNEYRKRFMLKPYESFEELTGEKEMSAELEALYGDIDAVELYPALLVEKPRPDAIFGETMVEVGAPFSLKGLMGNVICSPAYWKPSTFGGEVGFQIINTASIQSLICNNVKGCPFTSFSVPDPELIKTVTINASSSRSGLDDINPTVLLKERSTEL
Briefly: In vitro COX-2 inhibition assay (colorimetric COX inhibitor screening kit, Cayman). The settings on record: for SI (COX-1/ COX-2): IC50 (COX-1)/IC50 (COX-2); for IC50: mean of three determinations. Format: biochemical. As to the method:
as §1, §2

In data set [4] the test system is formalin-induced rat paw oedema. Nature of the data set: Formalin-induced paw oedema test (acute inflammation model). The class given is in vivo, Wistar rats. The settings on record: oral 5 mg/kg once daily for seven days; oedema 4 h after formalin; vs diclofenac sodium and celecoxib 5 mg/kg. As to the method:
A freshly prepared 5% formalin solution (prepared from 37% formaldehyde and saline (Merck, Germany)) was used as a phlogistic agent. Test and reference compounds (5 mg/kg body weight) were dissolved in DMSO and given orally with gastric gavage once per day for seven consecutive days, whereas DMSO was administered to the control group. On the 8th day, the initial paw volume was determined by a Vernier calliper. Then, a subcutaneous injection of 40 μl formalin was introduced into the right hind paw of all groups under light ether anaesthesia. The paw volume was measured 4 h after the formalin injection and the oedema volume was calculated by the difference in paw volume before and 4 h after the formalin injection. The percentage inhibition of oedema (or % protection against inflammation) was calculated for each compound as previously reported[34]^,[35].

For data set [5], the system named is rat stomach. Nature of the data set: Gastric ulcerogenic activity and histopathological examination. The following applies: stomach removed on 8th day of administration, 5 mg/kg oral.
Method: The same compounds were tested for chronic gastric ulcerative symptoms[37]^,[38]. Rat stomach was removed on the 8th day of drug administration. Stomach was opened through the greater curvature, washed and kept in saline. Gross examination was carried out for any signs of haemorrhage, hyperaemia, haemorrhagic erosion or ulcers. Moreover, histopathological inspection was conducted to verify the extent of inflammatory reaction in mucosal layers[28]^,[38].
Data set [6] deals with cotton pellet-induced granuloma. Nature of the data set: Cotton pellet-induced granuloma assay (chronic inflammation model). The following applies: oral 5 mg/kg daily, pellets excised on 8th day, vs diclofenac sodium and celecoxib.

As usually defined, the IC50 is the concentration that gives 50% inhibition.

For `Cc1nn(-c2ccccc2)c(Cl)c1/C=C1\SC(N2CCCCC2)=NC1=O` [Compound 1, (Z)-5-((5-chloro-3-methyl-1-phenyl-1H-pyrazol-4-yl)methylene)-2-(piperidin-1-yl)thiazol-4(5H)-one], the 50% inhibitory concentration (IC50) in data set [1] stood at 1.96 µM; in data set [2], 6.56 µM; in data set [3] it was 0.11 µM. Also, the “15-LOX inhibition, times the activity of quercetin” value in data set [1] (relative to quercetin) was 1.7 times. For the same compound, the “SI (COX-1/ COX-2)” value in data set [3] is on record as 59.

Turning to `Cc1nn(-c2ccccc2)c(Cl)c1/C=C1\SC(N2CCOCC2)=NC1=O` [Compound 2, (Z)-5-((5-chloro-3-methyl-1-phenyl-1H-pyrazol-4-yl)methylene)-2-morpholinothiazol-4(5H)-one], the IC50 was 2.42 µM in data set [1], 8.14 µM in data set [2] and 0.09 µM in data set [3]. Also, the “SI (COX-1/ COX-2)” value in data set [3] is on record as 90. The “Inhibition of formalin-induced rat paw oedema (in words)” value in data set [4] is on record as “as effective as either diclofenac or celecoxib”. Further, the “Gross observation of isolated rat stomachs” value in data set [5] (5 mg/kg) is “normal texture”. Also, in data set [6] (5 mg/kg), the “Inhibition of cotton pellet granuloma weight (in words)” value was “superior anti-inflammatory activity, when compared to diclofenac and celecoxib; also recorded: increased inhibition of granuloma weight in comparison to both celecoxib and diclofenac”.

Turning to `O=C1N=C(N2CCCCC2)S/C1=C\c1cn(-c2ccccc2)nc1-c1ccccc1` [Compound 3, (Z)-5-((1,3-diphenyl-1H-pyrazol-4-yl)methylene)-2-(piperidin-1-yl)thiazol-4(5H)-one], the figures for the IC50 in data set [1], in data set [2] and in data set [3] were 2.54 µM, 7.86 µM and 0.19 µM, respectively. The “SI (COX-1/ COX-2)” value in data set [3] is listed as 41.

Turning to `Cc1ccc(-c2nn(-c3ccccc3)cc2/C=C2\SC(N3CCCCC3)=NC2=O)cc1` [Compound 5, (Z)-5-((1-phenyl-3-(p-tolyl)-1H-pyrazol-4-yl)methylene)-2-(piperidin-1-yl)thiazol-4(5H)-one], the IC50 in data set [1] stood at 4.23 µM; in data set [2], 9.23 µM; in data set [3], 0.34 µM. Besides, in data set [3], the “SI (COX-1/ COX-2)” value turned out to be 27.

As for `Cc1ccc(-c2nn(-c3ccccc3)cc2/C=C2\SC(N3CCOCC3)=NC2=O)cc1` [Compound 6, (Z)-2-morpholino-5-((1-phenyl-3-(p-tolyl)-1H-pyrazol-4-yl)methylene)thiazol-4(5H)-one], the IC50 in data set [1] amounted to 2.85 µM; in data set [2] it was 12.5 µM; in data set [3], 0.18 µM. Moreover, the “SI (COX-1/ COX-2)” value in data set [3] is 69.

As for `O=C1N=C(N2CCCCC2)S/C1=C\c1cn(-c2ccccc2)nc1-c1ccc(Br)cc1` [Compound 9, (Z)-5-((3-(4-bromophenyl)-1-phenyl-1H-pyrazol-4-yl)methylene)-2-(piperidin-1-yl)thiazol-4(5H)-one], the IC50 in data set [1] was 5.64 µM; in data set [2] it was 14 µM; in data set [3], 0.13 µM. Besides, the “15-LOX inhibitory activity as % of the activity of quercetin” value in data set [1] (relative to quercetin) is reported as 59%. In addition, the “SI (COX-1/ COX-2)” value in data set [3] is listed as 107. In data set [4], the “Inhibition of formalin-induced rat paw oedema (in words)” value is “as effective as either diclofenac or celecoxib”. Besides, the “Inhibition of cotton pellet granuloma weight (in words)” value in data set [6] is reported as “only superior to celecoxib”.

`O=C1N=C(N2CCOCC2)S/C1=C\c1cn(-c2ccccc2)nc1-c1ccc(Br)cc1` [Compound 10, (Z)-5-((3-(4-bromophenyl)-1-phenyl-1H-pyrazol-4-yl)methylene)-2-morpholinothiazol-4(5H)-one]: the IC50 was 4.52 µM in data set [1], 11.3 µM in data set [2] and 0.11 µM in data set [3]. Besides, in data set [1] (relative to quercetin), the “15-LOX inhibitory activity as % of the activity of quercetin” value was determined as 74%. In addition, the “SI (COX-1/ COX-2)” value in data set [3] worked out at 103. Also, the “Inhibition of formalin-induced rat paw oedema (in words)” value in data set [4] is “as effective as either diclofenac or celecoxib”. The “Gross observation of isolated rat stomachs” value in data set [5] was “variable levels of hyperaemia without gross ulceration”. The “Histopathological examination of stomach gastric layers” value in data set [5] (H&E, 5 mg/kg) is “both edoema and inflammatory changes in stomach mucosal surface”. In addition, the “Inhibition of cotton pellet granuloma weight (in words)” value in data set [6] is on record as “only superior to celecoxib”.

As to `Cc1ccc(Cl)c(Nc2ccccc2C(=O)O)c1Cl` [Meclofenamate Na, reference compound], in data set [1], the IC50 was 5.64 µM.
